# From patent US9763445B2, “Safened herbicidal compositions comprising a pyridine carboxylic acid herbicide” (Dow AgroSciences, LLC, priority 2014, dated 2017)
# Columns and labels:
# wild buckwheat (POLCO) = experiment: Postemergence greenhouse trial, % visual injury on wild buckwheat; assay type: in vivo, Polygonum convolvulus; conditions: alone, 35 g/ha
# Description: (§1) Seeds of the desired test plant species were planted in Sun Gro MetroMix® 306 planting mixture, which typically has a pH of 6.0 to 6.8 and an organic matter content of about 30 percent, in plastic pots with a surface area of 103.2 square centimeters (cm^2). When required to ensure good germination and healthy plants, a fungicide treatment and/or other chemical or physical treatment was applied. The plants were grown for 7-36 days (d) in a greenhouse with an approximate 14-hour (h) photoperiod which was maintained at about 23° C. during the day and 22° C. during the night. Nutrients and water were added on a regular basis and supplemental lighting was provided with overhead metal halide 1000-Watt lamps as necessary. The plants were employed for testing when they reached the second or third true leaf stage.
# (§2) Weighed amounts of technical material were dissolved in a volume of 97:3 volume per volume (v/v) acetone/dimethyl sulfoxide (DMSO) to stock solutions. […] The concentrated stock solutions were diluted with an aqueous mixture of 1.5% v/v of Agri-dex crop oil concentrate to provide the appropriate application rates. Compound requirements are based upon a 12 milliliter (mL) application volume at a rate of 187 liters per hectare (L/ha). Stocks solutions of the safeners were prepared following the same procedure. Spray solutions of the safeners and experimental compound mixtures were prepared by adding the stock solutions to the appropriate amount of dilution solution to form a 12 mL spray solution in two-way combinations. Formulated compounds were applied to the plant material with an overhead Mandel track sprayer equipped with 8002E nozzles calibrated to deliver 187 L/ha over an application area of 0.503 square meters (m^2) at a spray height of 18 inches (43 centimeters (cm)) above average plant canopy. Control plants were sprayed in the same manner with the solvent blank. All herbicide application (component a) rates are in g ae/ha and all safener (component b) rates are in g ai/ha.
# (§3) The treated plants and control plants were placed in a greenhouse as described above and watered by sub-irrigation to prevent wash-off of the test compounds. After 20-22 d, the condition of the test plants as compared with that of the control plants was determined visually and scored on a scale of 0 to 100 percent where 0 corresponds to no injury and 100 corresponds to complete kill. The condition of the test plants was compared with that of the control plants as determined visually and scored on a scale of 0 to 100 percent, where 0 corresponds to no injury and 100 corresponds to complete kill. Colby's equation was used to determine the herbicidal effects expected from the mixtures.
# (§4) The safener cloquintocet-mexyl was combined with compound 1, compound 2, compound 4, compound 5, and compound 6, and applied to corn/maize (ZEAMX) and spring wheat (TRZAS) and the phytotoxicity of the herbicidal compositions was measured. In addition, the efficacy of the herbicidal composition on velvetleaf (ABUTH, Abutilon theophrasti), pigweed (AMARE, Amaranthus retroflexus), winter rape (BRSNW, Brassica napus), lambsquarters (CHEAL, Chenopodium album), thistle (CIRAR, Cirsium arvense), nutsedge (CYPES, Cyperus esculentus), poinsettia (EPHHL, Euphorbia heterophylla), wild buckwheat (POLCO, Polygonum convolvulus), giant foxtail (SETFA, Setaria faberi), and chickweed (STEME, Stellaria media) was evaluated.
# (§5) The safener cloquintocet-mexyl was combined with compound 1, compound 2, compound 3, compound 7, compound 8, compound 9, compound 10, compound 11, compound 12, compound 13, compound 14, compound 15, compound 16, compound 17, compound 18, compound 19, and compound 20, and applied to spring wheat (TRZAS), winter wheat (TRZAW), and spring barley (HORVS) and the phytotoxicity of the herbicidal compositions was measured. […]
# lambsquarters (CHEAL) = experiment: Postemergence greenhouse trial, % visual injury on lambsquarters; assay type: in vivo, Chenopodium album; conditions: Chenopodium album, post-emergence; alone, 35 g/ha; read-out: % visual injury, Ob
# Description: as §1, §2, §3, §4, §5
# velvetleaf (ABUTH) = experiment: Postemergence greenhouse trial, % visual injury on velvetleaf; assay type: in vivo, Abutilon theophrasti; conditions: alone, 35 g/ha
# Description: as §1, §2, §3, §4, §5
# spring wheat (TRZAS) = experiment: Postemergence greenhouse trial, % visual injury on spring wheat; assay type: in vivo, Triticum aestivum; conditions: alone, 35 g/ha
# Procedure, shortened: (§6)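 Postemergence greenhouse spray (187 L/ha, 1.5% v/v Agri-dex in water, acetone/DMSO stocks) on plants at second–third true leaf stage, ~23/22 °C, 14 h photoperiod; herbicides in g ae/ha, safener cloquintocet-mexyl in g ai/ha. Visual injury 0–100% versus solvent-blank controls after 20–22 d; Colby's equation gave expected mixture effects.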
# pigweed (AMARE) = experiment: Postemergence greenhouse trial, % visual injury on pigweed; assay type: in vivo, Amaranthus retroflexus; conditions: Amaranthus retroflexus, post-emergence; alone, 35 g/ha; read-out: % visual injury, Ob
# Procedure, shortened: as §6
# wild pansy (VIOTR) = experiment: Postemergence greenhouse trial, % visual injury on wild pansy; assay type: in vivo, Viola tricolor; conditions: alone, 35 g/ha
# Description: as §1, §2
# as §3, with “mixtures. […]” for “mixtures.”
# nutsedge (CYPES) = experiment: Postemergence greenhouse trial, % visual injury on nutsedge; assay type: in vivo, Cyperus esculentus; conditions: alone, 35 g/ha
# Description: as §1, §2, §3
# as §4, with “evaluated. […]” for “evaluated.”
# The safener cloquintocet-acid and a number of agriculturally acceptable esters and salts (-mexyl, -dimethylammonium salt and -triethylammonium salt) were combined in varying ratios with compound 1 and applied to spring wheat (TRZAS), winter wheat (TRZAW), and spring barley (HORVS), and the phytotoxicity of the herbicidal compositions was measured. […]
# winter rape (BRSNW) = experiment: Postemergence greenhouse trial, % visual injury on winter rape; assay type: in vivo, Brassica napus; conditions: Brassica napus, post-emergence; alone, 35 g/ha; read-out: % visual injury, Ob
# Procedure, shortened: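 Plants at second or third true leaf stage, greenhouse-grown (14 h photoperiod, ~23/22° C.), sprayed postemergence with compounds alone or with safener cloquintocet-mexyl in 1.5% v/v Agri-dex crop oil at 187 L/ha. Visual injury scored 0–100% versus solvent-blank controls after 20-22 d; expected mixture effects by Colby's equation.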
# giant foxtail (SETFA) = experiment: Postemergence greenhouse trial, % visual injury on giant foxtail; assay type: in vivo, Setaria faberi; conditions: alone, 35 g/ha
# Description: as §1
# Weighed amounts of technical material were dissolved in a volume of 97:3 volume per volume (v/v) acetone/dimethyl sulfoxide (DMSO) to stock solutions. […] The concentrated stock solutions were diluted with an aqueous mixture of 1.5% v/v of Agri-dex crop oil concentrate to provide the appropriate application rates. Compound requirements are based upon a 12 milliliter (mL) application volume at a rate of 187 liters per hectare (L/ha). […]
# as §3, with “Colby's equation was used to determine the herbicidal effects expected from the mixtures.” left out
# The safener cloquintocet-mexyl was combined with compound 1, compound 2, compound 4, compound 5, and compound 6, and applied to corn/maize (ZEAMX) and spring wheat (TRZAS) and the phytotoxicity of the herbicidal compositions was measured. […]
# thistle (CIRAR) = experiment: Postemergence greenhouse trial, % visual injury on thistle; assay type: in vivo, Cirsium arvense; conditions: Cirsium arvense, post-emergence; alone, 35 g/ha; read-out: % visual injury, Ob
# Description: as §1, §2, §3
# as §4, with “evaluated. […]” for “evaluated.”
# chickweed (STEME) = experiment: Postemergence greenhouse trial, % visual injury on chickweed; assay type: in vivo, Stellaria media; conditions: alone, 35 g/ha
# Description: as §1, §2, §3
# as §4, with “evaluated. […]” for “evaluated.”
# corn/maize (ZEAMX) = experiment: Postemergence greenhouse trial, % visual injury on corn/maize; assay type: in vivo, Zea mays; conditions: alone, 35 g/ha
# Description: as §1, §2, §3
# as §4, with “evaluated. […]” for “evaluated.”
# common sorghum (SORVU) = experiment: Postemergence greenhouse trial, % visual injury on common sorghum; assay type: in vivo, Sorghum vulgare; conditions: alone, 35 g/ha
# Description: as §1, §2
# as §3, with “mixtures. […]” for “mixtures.”
# The safener cloquintocet-acid and a number of agriculturally acceptable esters and salts (-mexyl, -dimethylammonium salt and -triethylammonium salt) were combined in varying ratios with compound 1 and applied to spring wheat (TRZAS), winter wheat (TRZAW), and spring barley (HORVS), and the phytotoxicity of the herbicidal compositions was measured. In addition, the efficacy of the herbicidal composition on pigweed (AMARE, Amaranthus retroflexus), nutsedge (CYPES, Cyperus esculentus), common sunflower (HELAN, Helianthus annuus), and common sorghum (SORVU, Sorghum vulgare).
# poinsettia (EPHHL) = experiment: Postemergence greenhouse trial, % visual injury on poinsettia; assay type: in vivo, Euphorbia heterophylla; conditions: alone, 35 g/ha
# Description: as §1
# Weighed amounts of technical material were dissolved in a volume of 97:3 volume per volume (v/v) acetone/dimethyl sulfoxide (DMSO) to stock solutions. […] The concentrated stock solutions were diluted with an aqueous mixture of 1.5% v/v of Agri-dex crop oil concentrate to provide the appropriate application rates. Compound requirements are based upon a 12 milliliter (mL) application volume at a rate of 187 liters per hectare (L/ha). Stocks solutions of the safeners were prepared following the same procedure. […]
# as §3, with “Colby's equation was used to determine the herbicidal effects expected from the mixtures.” left out
# as §4, with “evaluated. […]” for “evaluated.”
Structure (SMILES),"% visual injury, Ob (wild buckwheat (POLCO)) [%]",pest or weed control at 35 g/ha (lambsquarters (CHEAL)) [%],"% visual injury, Ob (velvetleaf (ABUTH)) [%]","% visual injury, Ob (spring wheat (TRZAS)) [%]",pest or weed control at 35 g/ha (pigweed (AMARE)) [%],"% visual injury, Ob (wild pansy (VIOTR)) [%]","% visual injury, Ob (nutsedge (CYPES)) [%]",plant injury at 35 g/ha (winter rape (BRSNW)) [%],"% visual injury, Ob (giant foxtail (SETFA)) [%]",pest or weed control at 35 g/ha (thistle (CIRAR)) [%],"% visual injury, Ob (chickweed (STEME)) [%]","% visual injury, Ob (corn/maize (ZEAMX)) [%]","% visual injury, Ob (common sorghum (SORVU)) [%]","% visual injury, Ob (poinsettia (EPHHL)) [%]"
COC(=O)c1nc(-c2ccc3ccn(C(C)=O)c3c2F)c(F)c(N)c1Cl [compound 3],97,85,50,30,95,10,10,30,60,50,70,0,10,
COC(=O)c1nc(-c2ccc3ccn(C(=O)C(C)(C)C)c3c2F)c(F)c(N)c1Cl [compound 5],100,100,80,45,100,,,97,60,80,85,35,,100
